Numbers after ± are expanded uncertainties.

From the NIST ThermoML archive (doi:10.1016/j.tca.2006.03.011) come the findings set out here.

For data set [1] the following is noted: DTA; for Normal melting temperature: Crystal 1.
The nature of data set [2]: Molar enthalpy of transition or fusion. The conditions noted are these: DSC.

Regarding `CCCCCCCCCCCCCCCCCCCC` [eicosane], in data set [1], the Normal melting temperature came out at 38.5 ± 0.71 °C. The “Molar enthalpy of transition or fusion” value in data set [2] (Crystal 1) was determined as 69 ± 1.8 kJ/mol.

`CCCCCCCCCCCCCCCCCCCCCCCCCCCCCCCCCCCC` [hexatriacontane]: the Normal melting temperature in data set [1] came to 77.04 ± 0.71 °C. Moreover, the Triple point temperature stood at 348.28 ± 0.71 K in data set [1] (Crystal 2) and 347.33 ± 0.71 K in data set [1] (Crystal 3). The “Molar enthalpy of transition or fusion” value in data set [2] (Crystal 1) was found to be 81.5 ± 2.1 kJ/mol; in data set [2] (Crystal 2), 24.7 ± 0.72 kJ/mol; in data set [2] (Crystal 3) it was 11.7 ± 0.39 kJ/mol.

In the case of `c1ccc2ccccc2c1` [naphthalene], in data set [1], the Normal melting temperature is 81.54 ± 0.71 °C. Also, the “Molar enthalpy of transition or fusion” value in data set [2] (Crystal 1) stood at 19.6 ± 0.59 kJ/mol.

Take `CCCCCCCCCCCCCCCCCCCCCCCCC` [pentacosane]: in data set [1], the Normal melting temperature came out at 52.77 ± 0.71 °C. Also, the results for the Triple point temperature in data set [1] (Crystal 2) and in data set [1] (Crystal 3) were 312.9 ± 0.71 K and 309 ± 0.71 K, respectively. Also, the “Molar enthalpy of transition or fusion” value in data set [2] (Crystal 1) was found to be 55.5 ± 1.5 kJ/mol; in data set [2] (Crystal 2) it was 1.07 ± 0.13 kJ/mol; in data set [2] (Crystal 3) it was 23.9 ± 0.7 kJ/mol.
